From patent publication US5776932A, “1,3,5-tribsubstituted indazole derivatives, processes for preparing, and for pharmacological treatment therewith” (Arzneimittelwerk Dresden G.m.b.H., priority 1996, dated 1998) come the findings set out here.

Test [1] has as its target T1, arachidonate-5-lipoxygenase (Rattus norvegicus, UniProt P12527).
T1 construct: using prepared macrophages from Wistar rats; endogenous in cells; host or cells: prepared macrophages from Wistar rats
T1 sequence (P12527 1-673): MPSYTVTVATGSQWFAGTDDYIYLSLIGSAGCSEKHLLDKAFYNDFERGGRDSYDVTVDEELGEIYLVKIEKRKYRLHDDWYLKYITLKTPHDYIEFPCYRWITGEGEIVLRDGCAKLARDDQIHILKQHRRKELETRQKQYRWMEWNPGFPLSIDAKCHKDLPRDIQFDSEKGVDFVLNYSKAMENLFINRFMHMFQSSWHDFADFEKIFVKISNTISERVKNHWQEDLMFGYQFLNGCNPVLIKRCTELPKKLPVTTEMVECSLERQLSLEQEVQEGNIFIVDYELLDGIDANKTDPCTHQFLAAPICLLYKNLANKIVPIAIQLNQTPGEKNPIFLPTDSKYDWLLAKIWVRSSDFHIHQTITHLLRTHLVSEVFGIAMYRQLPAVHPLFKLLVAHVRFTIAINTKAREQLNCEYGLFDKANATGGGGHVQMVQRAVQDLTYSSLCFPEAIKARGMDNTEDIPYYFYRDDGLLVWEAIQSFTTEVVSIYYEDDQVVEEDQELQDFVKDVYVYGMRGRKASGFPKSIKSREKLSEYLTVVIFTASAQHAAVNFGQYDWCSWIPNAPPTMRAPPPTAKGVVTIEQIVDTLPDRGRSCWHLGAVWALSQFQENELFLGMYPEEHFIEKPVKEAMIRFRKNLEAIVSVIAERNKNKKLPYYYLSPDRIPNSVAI
Kind of test: Inhibition of 5-lipoxygenase in prepared macrophages from Wistar rats. In kind it is cell-based. To be noted: quadruple determinations, mean IC50, read-out: IC50 (50% inhibition of 5-lipoxygenase). An excerpt:
Murphy, R. C. and Matthews, W. R., Purification and Characterization of Leukotrienes from Mastocytoma Cells, Methods in Enzymology, 86, pp. 409-416.
Argentiere, D. D., Ritchie, D. M. et al., Tepoxalin: A Dual Cyclooxygenase/5-Lipoxygenase Inhibitor of Arachidonic Acid Metabolism with Potent Anti-inflammatory Activity and a Favorable Gastrointestinal Profile, The Journal of Pharmacology and Experimental Therapeutics, Vol. 271, No. 3, 1399-1408, 1994.
Carter, G. W., Young, P. R. et al., 5-Lipoxygenase Inhibitory activity of Zileuton, The Journal of Pharmacology and Experimental Therapeutics, Vol. 256, No. 3, 1991.
The experiments were all conducted as quadruple determinations, by combining four partial experiments in each case were combined to determine the mean IC50 value.

A further test has as its system late phase eosinophilia. Nature of the test: Inhibition of late phase eosinophilia 24 hours after the inhalational ovalbumin challenge on actively sensitized guinea-pigs. To be noted: -2 h; for EOS, B (eosinophils in the group treated with the substance, with challenge): x ± s. In kind it is in vivo. An excerpt: Eosinophilic granulocytes play an important part in the transition of allergic diseases, e.g. bronchial asthma, to the chronic stage. Thus the bronchoalveolar lavage fluid (BAL) contains an increased number of eosinophils a few hours after an allergen-induced asthmatic attack. Eosinophils are expected to play an important part in cell damage since they contain histotoxic proteins, like major basic protein (MBP) and eosinophil cation protein (ECP), in their granula. It is also assumed that substances which prevent the infiltration of eosinophils have a therapeutic action against allergic diseases like bronchial asthma.
The inhibition of eosinophil infiltration by the substances was tested in vivo on guinea-pigs actively sensitized against ovalbumin by the substantenous administration of 10 μg of OA, with 1 μg of aluminum hydroxide adjuvant, three weeks before the beginning of the experiment, and a booster dose containing the same amount of OA and aluminum hydroxide was administrated substantaneously one week before the beginning of the experiment. Three weeks after the first sensitization, the animals were placed in a plastic box and exposed to an aerosol of 0.5% OA dissolved in a physiological saline solution. The nebulization time was 20-30 seconds. After 24 hours the animals were intraperitoneally anaesthetized with 1.5 g/kg body weight ethylurethane and a bronchioalveolar lavage was performed with 2×5 ml of physiological saline solution. The lavage fluid was collected and centrifuged at 400 G for 10 minutes and the cell pellet was then resuspended in 1 ml of physiological saline solution. The eosinophils were microscopically counted in a Neubauer chamber after staining using the No. 5877 Becton-Dickinson test kit for eosinophilia. The number of eosinophils was indicated in millions per animal. Each test was also carried out with two control groups with and without antigen challenge.
The percentage inhibition of the eosinophilia in the experimental groups treated with the substance is calculated by the following formula:
(A-C)-(B-C)/(A-C)×100=% inhibition
The test substances were administered orally or intraperitoneally as a triturate in 0.5% 5-hydroxyethylcellulose two hours before the antigen challenge.

For test [2], the system named is tracheal segments from actively sensitized guinea-pigs. Nature of the test: Inhibition of the antigen (ovalbumin)-induced contraction of isolated tracheal segments from actively sensitized guinea-pigs. Also noted: species or system guinea-pig. Particulars: Cavia porcellus; at 1.0 μmol/l; under mepyramine and indomethacin protection; read-out: maximum inhibition (ovalbumin-induced contraction). As for the experimental part: For this purpose, isolated tracheal segments from guinea-pigs actively sensitized against ovalbumin by the s.c. administration of 10 μg of ovalbumin with 1 mg of aluminum hydroxide adjuvant, three weeks before removal of the organ, and a booster dose of the same amount of ovalbumin and aluminum hydroxide s.c. one week before removal of the organ. The segments were placed in organ baths filled with a nutrient solution aerated with carbogen which is a mixture of 95% oxygen and 5% carbon dioxide, and kept at 37° C., and were connected to isometric force transducers. After preincubation with mepyramine to eliminate histamine, and indomethacin for the inhibition of cyclooxygenase, 5×10^-7 mol/l carbachol (carbamylcholine chloride) was added and a contraction was induced. 10 μg/ml ovalbumin as an allergen was then added to the bath liquid and the maximum contraction of the tracheal segments which was thereby induced was correlated with the effect of the carbachol as control (=100%). The test substances were added to the organ bath 30 minutes before the allergen-induced contraction. Table 2 below indicates the IC50 values, i.e. the concentrations which cause a 50% inhibition of the contraction of isolated tracheal segments from the guinea-pig. The IC50 values were determined by testing 3-4 concentrations on 4-8 organs in each case.

In test [3] the test system is SRS-A bronchoconstriction in guinea-pigs sensitized with ovalbumin. Kind of test: SRS-A bronchoconstriction in anaesthetized, ovalbumin-sensitized guinea-pigs after inhalation of antigen. In kind it is in vivo. Particulars: -2 hrs, 1% OA, 20 inspirations. The method, then:
For this purpose, guinea-pigs are actively sensitized against ovalbumin (OA) with 20 μg OA+20 mg Al(OH)3 in 0.5 ml, administered intraperitoneally (i.p.) and a booster dose of the same is administered 14 days later. One week after the booster dose, the animals are i.p. anaesthetized with urethane and connected to an apparatus (Mumed Physiological Recorder 800) for the determination of pulmonary function parameters. The animals are pretreated with mepyramine to antagonize the histamine, with indomethacin to inhibit the formation of prostaglandins, and with propanolol to eliminate β-adrenergic mechanisms. If an allergic reaction is induced after this treatment, the associated bronchospam is extensively attributable to the effect of leukotrienes.
Before the experiment the test substances were administered orally two hours before the challenge. After an equilibration period an asthmatic challenge attack is induced by the nebulization of a 1% ovalbumin solution over 20 inspirations.
The drop in dynamic compliance is used as a suitable and well reproducible parameter for characterizing the action of leukotrienes. Under control conditions, after pretreatment and ovalbumin challenge, guinea-pigs react with a slow drop in compliance of c. 30-40% over 15 minutes.

In general, IC50 refers to the concentration at which inhibition is half-maximal. As usually defined, the inhibition is the drop in the measured response relative to a control, in per cent. The % inhibition is the percentage by which the read-out fell short of the control.

“1-(2,4-dimethylbenzyl)-5-methoxy-1H-indazole-3-ol [Example 18]”: the 50% inhibitory concentration (IC50) in test [1] was 977 nM.
For the molecule `COc1ccc2c(c1)c(O)nn2Cc1ccc(OCc2ccccc2)cc1` [Example 1, 1-(4-benzyloxybenzyl)-5-methoxy-1H-indazole-3-ol], in test [1], the IC50 turned out to be 171 nM. In the test with late phase eosinophilia (1 mg/kg i.p.), the “% inhibition (eosinophilia)” value was determined as 48.7% and the “EOS, B (eosinophils in the group treated with the substance, with challenge)” value was found to be 3.3 ± 1.6 mill./animal. Moreover, in the test with late phase eosinophilia (30 mg/kg p.o.), the “% inhibition (eosinophilia)” value was 36.0% and the “EOS, B (eosinophils in the group treated with the substance, with challenge)” value came out at 3.7 ± 1.7 mill./animal. For the same molecule, the inhibition at 1 µM in test [2] is 36%.
For `COc1ccc2c(c1)c(O)nn2Cc1ccc(Cl)cc1` [Example 2, 1-(4-chlorobenzyl)-5-methoxy-1H-indazole-3-ol], in test [1], the IC50 came out at 400 nM.
With `COc1ccc2c(c1)c(O)nn2Cc1cccc(Cl)c1` [Example 3, 1-(3-chlorobenzyl)-5-methoxy-1H-indazole-3-ol], the IC50 in test [1] was 470 nM.
With `COc1ccc2c(c1)c(O)nn2Cc1ccccc1Cl` [Example 4, 1-(2-chlorobenzyl)-5-methoxy-1H-indazole-3-ol], the IC50 in test [1] amounted to 710 nM.
For `COc1ccc2c(c1)c(O)nn2Cc1ccc(Cl)cc1Cl` [Example 7, 1-(2,4-dichlorobenzyl)-5-methoxy-1H-indazole-3-ol], in test [1], the IC50 stood at 100 nM.
Still for that read-out and setting: next, `COc1ccc2c(c1)c(O)nn2Cc1c(Cl)cccc1Cl` [Example 8, 1-(2,6-dichlorobenzl)-5-methoxy-1H-indazole3-ol]: 750 nM; `COc1ccc2c(c1)c(O)nn2Cc1cccc(Cl)c1F` [Example 10, 1-(3-chloro-2-flurobenzyl)-5-methoxy-1H-indazole-3-ol]: 829 nM; `COc1ccc2c(c1)c(O)nn2Cc1ccc(Br)cc1` [Example 11, 1-(4-bromobenzyl)-5-methoxy-1H-indazole-3-ol]: 765 nM.
The same measure, in the same setting: next, `COc1ccc2c(c1)c(O)nn2Cc1ccc(C(C)(C)C)cc1` [Example 19, 1-(4-tert-butylbenzyl)-5-methoxy-1H-indazole-3-ol]: 696 nM; `COc1ccc2c(c1)c(O)nn2Cc1ccc(-c2ccccc2)cc1` [Example 22, 1-biphenyl-4-ylmethyl-5-methoxy-1H-indazole-3-ol]: 257 nM; `COc1ccc2c(c1)c(O)nn2Cc1ccc2ccccc2c1` [Example 23, 5-methoxy-1-naphthalen-2-ylmethyl-1H-indazole-3-ol]: 265 nM.
As for `COc1ccc2c(c1)c(O)nn2Cc1cccs1` [Example 24, 5-methoxy-1-thiophen-2-ylmethyl-1H-indazole-3-ol], in test [1], the 50% inhibitory concentration (IC50) stood at 500 nM.
`COc1ccc2c(c1)c(O)nn2Cc1cc2c(cc1Cl)OCO2` [Example 31]: the IC50 in test [1] is 874 nM.
With `COc1ccc2c(c1)c(O)nn2CC=Cc1ccccc1` [Example 36, 5-methoxy-1-(3-phenylallyl)-1H-indazole-3-ol], the IC50 in test [1] was 299 nM.
Take `COc1ccc2c(c1)c(O)nn2CCOc1ccccc1` [Example 37, 5-methoxy-1-(3-phenoxyethyl)-1H-indazole-3-ol]: the IC50 in test [1] came out at 745 nM.
Same read-out and setting: next, `COc1ccc2c(c1)c(O)nn2CCCOc1ccccc1` [Example 38, 5-methoxy-1-(3-phenoxypropyl)-1H-indazole-3-ol]: 655 nM.
Still for that read-out and setting: to `COc1ccc2c(c1)c(O)nn2CCC(=O)c1ccccc1` [Example 39, 3-(3-hydroxy-5-methoxyindazole-1-yl)phenyl-propan-1-one] belongs 150 nM; to `COc1ccc2c(c1)c(O)nn2CCCC(=O)c1ccc(F)cc1` [Example 42, 1-(4-fluorophenyl)-4-(3-hydroxy-5-methoxy-1H-indazole-1-yl)butan-1-one], 679 nM; to `COc1ccc2c(c1)c(O)nn2Cc1ccc(OCc2ccc3ccccc3n2)cc1` [Example 49], 86 nM.
With `Oc1ccc2c(c1)c(O)nn2Cc1ccc(Cl)c(Cl)c1` [Example 51, 1-(3,4-dichlorobenzyl)-1H-indazole-3,5-diol], the half-maximal inhibitory concentration (IC50) in test [1] stood at 748 nM.
The same measure, in the same setting: next, `Oc1ccc2c(c1)c(O)nn2Cc1ccc(Cl)cc1Cl` [Example 52, 1-(2,4-dichlorobenzyl)-1H-indazole-3,5-diol]: 258 nM.
Take `O=C(Nc1ccc(Cl)c(Cl)c1)Nc1ccc2c(c1)c(O)nn2Cc1ccc(Cl)cc1` [Example 61, 1-[1-(4-chlorobenzyl)-3-hydroxy-1H-indazole-5-yl]-3-(3,4-dichlorophenyl)urea]: the IC50 in test [1] was found to be 278 nM.
For the molecule `COc1ccc2c(c1)c(O)nn2Cc1ccc(OCc2ccccc2)cc1` [[no label printed]], in test [3] (5.0 mg/kg oral), the “% drop in dyn. compliance” value was 32 ± 13% and the “% inhibition” value amounted to 20%. In test [3] (10.0 mg/kg oral), the “% drop in dyn. compliance” value is given as 9.3 ± 11% and the “% inhibition” value was determined as 77%.
